Experimental data from US9228991B2, “Methods and kits for detection of drugs” (RAMOT AT TEL-AVIV UNIVERSITY LTD., priority 2010, dated 2016).
Like-named read-outs stand apart in the source and are kept apart here.

Columns and labels:
[1] = cited from earlier work
[2] = GHB solubility / precipitation in anti-solvents
[3] = cited from earlier work; remark: listed apart in the source

O=C(O)CCCO [GHB, gamma-hydroxybutyrate]
Physical Effect ([1]; GHB dose 4-8 (very high), 4-8% in drink): Powerful deep sleep.
dose at which a dangerous overdose can occur ([1]; depending on body weight and metabolism): two
heavy dose ([1]; in vivo): approximately 2.5 grams
solubility in anti-solvent ([2]; acetonitrile): mostly insoluble
solubility in anti-solvent ([2]; pure ethanol): mostly insoluble

CNC1(c2ccccc2Cl)CCCCC1=O (centres unmarked) [ketamine]
Physical Effect ([3]; ketamine dose 10-80 mg (low), <0.01-0.08% in drink): Mild euphoria
Physical Effect ([3]; ketamine dose 130-250 mg (high), 0.13-0.25% in drink): K-hole, near comatose state
Physical Effect ([3]; ketamine dose >250 mg (mega), >0.25% in drink): Powerful deep sleep.
